# From patent publication US20050271661A1, “Methods and reagents for the treatment of immunoinflammatory disorders” (priority 2004, published 2005)
# Assays:
# [1] = tested on: NFκB; assay: NFκB-dependent transcription, NFκB luciferase reporter in CCRF-CEM cells activated with PI; type: cell-based
# Description: (§1) Reporter plasmids were transfected into CCRF-CEM cells using nucleofection (Nucleofector; AMAXA, Germany). Reporter plasmids expressing firefly luciferase (Luc) were purchased from Stratagene. pNFAT-Luc contains four NFAT binding sites; pGRE-Luc contains four GRE sites, and pAP1-Luc contains seven AP1 binding sites. The NFκB luciferase reporter, p(IL6κB)3-50hu.IL6-luc+, contains three NFκB sites and was a generous gift of Dr. De Bosscher (University of Ghent, Belgium). 10^7 cells suspended in 100 μL Amaxa ‘R’ Cell-line solution were transferred to a cuvette. One μL (1 μg/μL) of solution containing reporter plasmid (firefly luciferase) and control plasmid (pRL-TK-Renilla) (Renilla luciferase) (Promega) at a ratio of (10:1) were added to the cell suspension. […] After transfection the cells were suspended in 200 μL medium, allowed to recover for an hour, equal volume of medium containing 2× drugs were added and incubated at 37° C. for 30 min. Then the cells were stimulated with PI for another five hours. The luciferase activity of each of plasmid and control Renilla-plasmid were measured as per the procedure in Promega Luciferase assay kit.
# NFκB-dependent transcription was measured by transient transfection of an NFκB reporter plasmid into CCRF-CEM cells and subsequent activation with PI.
# [2] = tested on: IκB; assay: IκB degradation western blot, PI-activated primary T cells; type: cell-based, human; conditions: PI 30 min
# Experimental: (§2) Purified primary human T-cells (10^7 T-cells at 1×10^6 cells/ml) were pretreated with various drugs for 30 min at 37° C. and then stimulated for 30 minutes with PMA and ionomycin. Cells were then pelleted and extracted with 2× protein load dye (Invitrogen, NP0008). Total cell lysates were boiled and centrifuged before loading. 10-15 μl of lysate (approximately 250,000 cells) per lane was run on a 10-12% Tris-Bis gel, or a 3-8% Tris-Acetate gel (precast from Invitrogen). Proteins were immunoblotted onto immobilon PVDF membrane (Millipore) for 30 min using an Owl Semi-Dry electroblotting system. Membranes were blocked with 4% milk for two hours and then incubated with appropriate primary antibodies, washed three times and then probed with secondary antibodies. Chemi-glow™ (Alpha Innotech) chemilluminescent detection solutions were added and image visualized and captured using an Alpha Imager 8900 (Alpha Innotech). NFAT1 was visualized using an antibody obtained from BD Transduction Laboratory (#610703). IκB-alpha was visualized using an antibody from Santa Cruz Biotechnology (#sc371). Mitogen activated protein kinases (MAPK) were visualized using the following antibodies obtained from Cell Signaling: ERK p44/p42 (phospho, #9101; total, #9102); p38 (phospho, #9211; total, #9212); and JNK/SAPK (phospho, #9251; total, #9252).
# Primary T cells were activated in vitro with PI (30 min) and extracted for western blot analysis.
# [3] = tested on: ERK1/2; assay: ERK1/2 phosphorylation western blot, activated primary T cells; type: cell-based, human; conditions: highest dose tested: cyclosporine 1 μM, prednisolone 3 μM, amoxapine 30 μM, paroxetine 30 μM
# Experimental: as §2
# (§3) Purified primary T cells were activated for 30 minutes and extracted for western blot analysis. Activation of each MAPK was tracked using phosphospecific antibodies to a regulatory site on each type of MAPK, normalized by the measurement of total amounts of each MAPK species (FIGS. 4A-4C).
# [4] = tested on: p38; assay: p38 phosphorylation western blot, activated primary T cells; type: cell-based, human; conditions: primary T cells activated 30 minutes
# Experimental: as §2, §3
# [5] = tested on: NFAT; assay: NFAT nuclear translocation by immunofluorescence in PI-activated CCRF-CEM cells; type: cell-based
# Description: NFAT1 was visualized using an antibody obtained from BD Transduction Laboratory (#610703).
# [6] = tested on: NFAT; assay: NFAT-dependent transcription, NFAT luciferase reporter in CCRF-CEM cells activated with PI; type: cell-based
# Description: as §1
# [7] = tested on: AP1; assay: AP1-dependent transcription, AP1 luciferase reporter in CCRF-CEM cells activated with PI; type: cell-based
# Description: as §1
# [8] = tested on: NFAT; assay: NFAT dephosphorylation band shift on western blot, PMA/ionomycin-activated primary T cells; type: cell-based, human; conditions: up to 3 μM
# Experimental: as §2, with “Mitogen activated protein kinases (MAPK) were visualized using the following antibodies obtained from Cell Signaling: ERK p44/p42 (phospho, #9101; total, #9102); p38 (phospho, #9211; total, #9212); and JNK/SAPK (phospho, #9251; total, #9252).” left out
# T cells were isolated from the buffy coat of male donors between the ages of 35 to 50 years. These T cells were activated in vitro with PMA/ionomycin (PI) for 30 minutes and the phosphorylation of NFAT analyzed by mobility shift on a western blot. […]
# [9] = tested on: JNK; assay: JNK activation (phosphorylation) western blot, activated primary T cells; type: cell-based, human; conditions: primary T cells activated 30 minutes
# Experimental: as §2, with “#9252). […]” for “#9252).”
# [10] = tested on: NFκB; conditions: activated CCRF-CEM cells, p65
smiles,measurement,setting,value
"O=C(/C=C/c1ccc(O)c(O)c1)OCCc1ccccc1 [CAPE, caffeic acid phenethyl ester]",inhibition of NFκB-dependent transcription,"[1]; CCRF-CEM cells, NFκB reporter, PI",inhibited
Clc1ccc2c(c1)C(N1CCNCC1)=Nc1ccccc1O2 [amoxapine],concentration at which IκB stabilization effects begin,[2],25 µM
same,prevention of phosphorylation of ERK1/2,[3],not effective
same,effect in the p38 assay,[4],no effect
Fc1ccc([C@@H]2CCNC[C@H]2COc2ccc3c(c2)OCO3)cc1 [paroxetine],IC50,"[5]; Homo sapiens, read-out: IC50, inhibition of NFAT translocation",30 µM
same,IC50,"[6]; Homo sapiens, CCRF-CEM cells, NFAT reporter, read-out: IC50, inhibition of PI-stimulated NFAT transcription",9 µM
same,concentration at which IκB stabilization effects begin,[2],15 µM
same,prevention of phosphorylation of ERK1/2,[3],not effective
same,concentration above which some phospho-p38 inhibition is seen,[4],above 10 μM
same,IC50,"[7]; CCRF-CEM cells, AP1 reporter, PI",20 to 30 µM
C[C@]12C=CC(=O)C=C1CC[C@@H]1[C@@H]2[C@@H](O)C[C@@]2(C)[C@H]1CC[C@]2(O)C(=O)CO [prednisolone],effect on NFAT dephosphorylation,[8],no effect
same,activity in NFAT translocation assay,[5],not active
same,inhibition of PI-stimulated NFAT transcription,[6]; even at high doses,no strong inhibition
same,effect on IκB degradation,[2],no effect
same,inhibition of NFκB-dependent transcription,[1]; at 1 μM,30%
same,prevention of phosphorylation of ERK1/2,[3],not effective
same,effect in the p38 assay,[4],no effect
same,effect on JNK,[9],no effect
same,inhibition of AP1-dependent transcription,[7]; at 300 nM,30%
same,effect on NFκB translocation,[10],no effect
